Tests used:
[1] = tested on: mice; assay: Acute toxicity in mice after oral administration; format: in vivo
Description: (§1) The acute toxicity of compounds of this invention has been evaluated after oral administration in mice

[2] = biological target: T1, enkephalinase (Rattus norvegicus, UniProt P07861); assay: Inhibition of enkephalinase, particulate fraction of rat striata, 3H-Tyr-Leucine-Enkephalin substrate; format: biochemical, rats; conditions: read-out: Drug concentration which inhibits 50% of the enzymatic activities (IC50(M)), Enkephalinase
T1 construct: enzymatic preparation extracted from the particulate fraction of striata of rats; from tissue; host or cells: rat striatum, particulate fraction purified on discontinuous sucrose gradient
T1 sequence (P07861 1-750): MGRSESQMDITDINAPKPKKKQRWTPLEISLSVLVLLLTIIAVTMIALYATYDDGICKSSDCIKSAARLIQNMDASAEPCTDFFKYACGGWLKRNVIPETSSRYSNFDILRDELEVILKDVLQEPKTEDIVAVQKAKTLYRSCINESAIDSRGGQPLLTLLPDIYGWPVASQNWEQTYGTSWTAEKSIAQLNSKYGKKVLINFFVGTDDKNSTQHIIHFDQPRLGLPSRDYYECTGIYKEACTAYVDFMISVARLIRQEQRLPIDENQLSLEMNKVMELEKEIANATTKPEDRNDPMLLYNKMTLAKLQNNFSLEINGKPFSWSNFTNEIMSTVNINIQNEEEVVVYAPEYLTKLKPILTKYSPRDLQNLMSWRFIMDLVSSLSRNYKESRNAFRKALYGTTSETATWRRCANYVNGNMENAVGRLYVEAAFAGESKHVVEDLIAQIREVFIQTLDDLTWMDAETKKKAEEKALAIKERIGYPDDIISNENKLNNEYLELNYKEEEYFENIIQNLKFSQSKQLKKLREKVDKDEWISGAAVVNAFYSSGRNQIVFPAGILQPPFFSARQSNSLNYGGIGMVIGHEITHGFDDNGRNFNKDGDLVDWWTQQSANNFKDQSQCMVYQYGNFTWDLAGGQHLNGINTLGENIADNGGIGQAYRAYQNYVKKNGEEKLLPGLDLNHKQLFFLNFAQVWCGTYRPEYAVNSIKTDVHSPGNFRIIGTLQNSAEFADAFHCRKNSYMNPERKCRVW
Description: The evaluation of the inhibitory effect on enkephalinase and on aminopeptidase activity respectively has been made as follows:
(a) enkephalinase: it has been used the enzymatic preparation extracted from the particulate fraction of striata of rats purified on discontinous gradient of sucrose (Blumberg et al., Life Sci., 28, (1981), 301); the evaluation of the enzymatic activity has been made using ^3 H-Tyr-Leucine-Enkephalin as substrate (Vogel and Alstein, FEBS Lett., 80, (1977), 332).

[3] = biological target: T2, amino peptidase (Rattus norvegicus, UniProt F1M9V7); assay: Inhibition of amino peptidase, soluble fraction of rat striata, 3H-Tyr-Leucine-Enkephalin substrate; format: biochemical, rats; conditions: read-out: Drug concentration which inhibits 50% of the enzymatic activities (IC50(M)), Amino Peptidase
T2 construct: as enzyme source it has been used the soluble fraction of point (a) above; from tissue; host or cells: rat striatum, soluble fraction
T2 sequence (F1M9V7 1-920): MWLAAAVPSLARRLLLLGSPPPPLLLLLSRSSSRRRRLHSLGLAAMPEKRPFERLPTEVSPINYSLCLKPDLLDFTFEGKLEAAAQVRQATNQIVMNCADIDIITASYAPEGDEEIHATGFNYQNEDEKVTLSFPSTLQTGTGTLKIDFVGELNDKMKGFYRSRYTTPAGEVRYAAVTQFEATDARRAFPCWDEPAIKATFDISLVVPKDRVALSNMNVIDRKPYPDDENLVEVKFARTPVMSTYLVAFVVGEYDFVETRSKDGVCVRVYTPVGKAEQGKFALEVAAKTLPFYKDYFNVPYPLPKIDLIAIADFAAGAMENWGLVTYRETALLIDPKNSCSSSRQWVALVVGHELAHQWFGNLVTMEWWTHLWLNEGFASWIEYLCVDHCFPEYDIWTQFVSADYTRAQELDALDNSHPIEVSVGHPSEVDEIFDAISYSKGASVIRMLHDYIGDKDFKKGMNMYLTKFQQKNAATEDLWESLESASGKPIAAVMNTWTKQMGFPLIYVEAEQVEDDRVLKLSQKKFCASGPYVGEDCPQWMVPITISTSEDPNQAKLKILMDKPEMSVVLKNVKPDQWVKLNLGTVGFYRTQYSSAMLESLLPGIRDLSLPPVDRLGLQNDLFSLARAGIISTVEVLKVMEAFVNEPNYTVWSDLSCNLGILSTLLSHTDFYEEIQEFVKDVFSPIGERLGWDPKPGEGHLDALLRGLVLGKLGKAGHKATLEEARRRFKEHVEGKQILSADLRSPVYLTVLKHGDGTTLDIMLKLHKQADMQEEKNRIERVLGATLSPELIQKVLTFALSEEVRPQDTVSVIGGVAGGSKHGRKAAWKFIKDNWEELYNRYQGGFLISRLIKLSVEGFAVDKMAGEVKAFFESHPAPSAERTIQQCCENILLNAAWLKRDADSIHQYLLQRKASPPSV
Description: The evaluation of the inhibitory effect on enkephalinase and on aminopeptidase activity respectively has been made as follows: […]

[4] = biological target: T3, enkephalinase (Mus musculus, UniProt Q61391); assay: Potentiation of Met-Enk analgesia in mice, hot plate test, intracerebral administration; format: in vivo
T3 construct: potentiation of the analgesic effect induced in mice by Methionine-Enkephalin; from tissue; host or cells: endogenous enzyme in the brain of living mice (intracerebral administration)
T3 sequence (Q61391 1-750): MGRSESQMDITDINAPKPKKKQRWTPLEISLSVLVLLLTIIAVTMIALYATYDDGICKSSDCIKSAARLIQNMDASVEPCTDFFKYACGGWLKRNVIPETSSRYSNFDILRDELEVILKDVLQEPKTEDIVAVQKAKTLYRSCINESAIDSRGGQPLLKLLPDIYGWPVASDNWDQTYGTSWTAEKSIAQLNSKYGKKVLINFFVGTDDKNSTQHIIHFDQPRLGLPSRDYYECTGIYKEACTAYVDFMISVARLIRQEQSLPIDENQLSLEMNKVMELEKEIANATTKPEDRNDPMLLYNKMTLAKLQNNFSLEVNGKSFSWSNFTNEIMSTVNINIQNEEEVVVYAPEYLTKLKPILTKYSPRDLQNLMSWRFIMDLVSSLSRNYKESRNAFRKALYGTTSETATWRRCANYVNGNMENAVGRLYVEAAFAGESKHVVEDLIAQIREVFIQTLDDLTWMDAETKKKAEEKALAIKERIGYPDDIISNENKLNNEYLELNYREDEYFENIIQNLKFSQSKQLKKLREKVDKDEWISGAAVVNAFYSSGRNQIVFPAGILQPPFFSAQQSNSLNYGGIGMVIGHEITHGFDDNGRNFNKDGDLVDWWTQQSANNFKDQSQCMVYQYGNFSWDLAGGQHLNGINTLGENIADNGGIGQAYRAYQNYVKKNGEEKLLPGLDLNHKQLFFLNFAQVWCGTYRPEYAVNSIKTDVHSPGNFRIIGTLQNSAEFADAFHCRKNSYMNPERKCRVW

[5] = Acute toxicity in mice after oral administration; format: in vivo; conditions: mouse, in vivo
Description: as §1

[6] = Met-Enk 50 μg/ic + compound 12,5 μg/ic
[7] = Met-Enk 50 μg/ic + compound 25 μg/ic
[8] = Met-Enk 50 μg/ic + compound 50 μg/ic

Row | Compound | IC50 [2] [M] | IC50 [3] [M] | further results
1 | 2-(2-acetylthiomethyl-propionamido)-picolinic acid [Example 26] | – | – | LD50 [1]: 421 mg/kg
2 | CC(C)C[C@H](NC(=O)[C@@H](O)[C@H](N)Cc1ccccc1)C(=O)O [Bestatin, reference compound] | > 1e-06 | 2e-07 | –
3 | C[C@H](CS)C(=O)N1CCC[C@H]1C(=O)O [Captopril, 1,-(3-mercapto-2-methyl-1-oxopropyl)-L-proline, reference compound] | > 1e-06 | > 1e-06 | –
4 | CC(CS)C(=O)Nc1ccc(C(=O)O)cn1 (stereo not shown) [Example 8, 6-(2-mercaptomethyl-propionamido)-nicotinic acid] | 5e-07 | > 1e-06 | Latency Time X ± SE (sec) [4, 6]: 19,6 ± 2,1 sec
5 | COC(=O)c1cncc(NC(=O)C(C)CS)c1 (stereo not shown) [Example 13, methyl 5-(2-mercaptomethyl-propionamido)-nicotinate] | 2e-07 | > 1e-06 | –
6 | CC(CS)C(=O)Nc1cncc(C(=O)O)c1 (stereo not shown) [Example 14, 5-(2-mercaptomethyl-propionamido)-nicotinic acid] | 5e-08 | > 1e-06 | Latency Time X ± SE (sec) [4, 7]: 27,7 ± 1,5 sec
7 | COC(=O)c1cncc(N(C)C(=O)C(C)CSC(C)=O)c1 (stereo not shown) [Example 16, methyl 5-(2-acetylthiomethyl-N-methyl-propionamido)-nicotinate] | 7e-07 | > 1e-06 | Latency Time X ± SE (sec) ([4]; Met-Enk 50 μg/ic + compound 5 μg/ic): 14,8 ± 1,1 sec
8 | CC(CS)C(=O)N(C)c1cncc(C(=O)O)c1 (stereo not shown) [Example 17, 5-(2-mercaptomethyl-N-methyl-propionamido)-nicotinic acid] | 1e-07 | > 1e-06 | Latency Time X ± SE (sec) [4, 8]: 13,8 ± 1,4 sec
9 | C[C@H](CSC(=O)c1ccccc1)C(=O)Nc1cncc(C(=O)O)c1 [Example 18a, S(-)-5-(2-benzoylthiomethyl-propionamido)-nicotinic acid] | 3e-07 | > 1e-06 | Latency Time X ± SE (sec) [4, 8]: 13,1 ± 0,9 sec
10 | CC(CS)C(=O)Nc1ccc(C(=O)O)nc1 (stereo not shown) [Example 23, 5-(2-mercaptomethyl-propionamido)-picolinic acid] | 2e-07 | > 1e-06 | Latency Time X ± SE (sec) [4, 7]: 26,1 ± 2,1 sec
11 | COC(=O)c1ncccc1NC(=O)C(C)CSC(C)=O (stereo not shown) [Example 24, methyl 3-(2-acetylthiomethyl-propionamido)-picolinate] | – | – | LD50 [5]: 390 mg/kg
12 | COC(=O)c1ncccc1NC(=O)C(C)CS (stereo not shown) [Example 25, methyl 3-(2-mercaptomethyl-propionamido)-picolinate] | – | – | LD50 [5]: 329 mg/kg
13 | O=C(O)c1ccnc(NC(=O)C(CS)Cc2ccccc2)c1 (stereo not shown) [Example 28, 2-(2-mercaptomethyl-3-phenyl-propionamido)-isonicotinic acid] | 1.8e-09 | > 1e-06 | Latency Time X ± SE (sec) [4, 8]: 27,0 ± 1,6 sec
14 | CC(CS)C(=O)Nc1cc(C(=O)O)ccn1 (stereo not shown) [Example 31, 2-(2-mercaptomethyl-propionamido)-isonicotinic acid] | 5e-07 | > 1e-06 | Latency Time X ± SE (sec) [4, 6]: 15,4 ± 1,2 sec
15 | Methionine-Enkephalin [Met--Enk, reference compound] | – | – | Latency Time X ± SE (sec) ([4]; Met-Enk alone 50 μg/ic): 14,7 ± 1,3 sec

From US4528296A, “Derivatives of aminopyridinecarboxylic acids and pharmaceutical compositions containing them” (Simes, Societa Italiana Medicinalle Sintetici, priority 1982, dated 1985)
